# In ChEMBL document CHEMBL1132619 (J Med Chem, 1999):
# Assays:
# Histamine H3 receptor = Histamine H3 receptor (Rattus norvegicus, UniProt Q9QYN8); experiment: In vitro binding affinity was measured against Histamine H3 receptor on rat cerebral cortex.; format: tissue-based
# [1] = target: Histamine H3 receptor (Rattus norvegicus) (UniProt Q9QYN8); settings: Cerebral cortex
# [2] = target: Histamine H3 receptor (Cavia porcellus) (UniProt Q9JI35); settings: Jejunum
# [3] = target: Histamine H1 receptor (Cavia porcellus) (UniProt P31389); settings: Jejunum
# [4] = target: Histamine H2 receptor (Cavia porcellus) (UniProt P47747); settings: Cardiac atrium
# Histamine H2 receptor (Cavia porcellus), sequence (P47747 whole entry): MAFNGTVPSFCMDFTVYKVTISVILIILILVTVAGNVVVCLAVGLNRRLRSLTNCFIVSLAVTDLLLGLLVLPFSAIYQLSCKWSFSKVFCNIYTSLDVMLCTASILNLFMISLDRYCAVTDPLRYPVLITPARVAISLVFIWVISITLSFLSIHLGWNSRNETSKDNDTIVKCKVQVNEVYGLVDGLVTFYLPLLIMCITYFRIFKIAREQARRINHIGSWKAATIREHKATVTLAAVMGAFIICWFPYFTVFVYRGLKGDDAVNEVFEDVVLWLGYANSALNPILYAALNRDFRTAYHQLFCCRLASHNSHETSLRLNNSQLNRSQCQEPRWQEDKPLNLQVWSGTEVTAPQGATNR
# Histamine H3 receptor (Cavia porcellus), sequence (Q9JI35 whole entry): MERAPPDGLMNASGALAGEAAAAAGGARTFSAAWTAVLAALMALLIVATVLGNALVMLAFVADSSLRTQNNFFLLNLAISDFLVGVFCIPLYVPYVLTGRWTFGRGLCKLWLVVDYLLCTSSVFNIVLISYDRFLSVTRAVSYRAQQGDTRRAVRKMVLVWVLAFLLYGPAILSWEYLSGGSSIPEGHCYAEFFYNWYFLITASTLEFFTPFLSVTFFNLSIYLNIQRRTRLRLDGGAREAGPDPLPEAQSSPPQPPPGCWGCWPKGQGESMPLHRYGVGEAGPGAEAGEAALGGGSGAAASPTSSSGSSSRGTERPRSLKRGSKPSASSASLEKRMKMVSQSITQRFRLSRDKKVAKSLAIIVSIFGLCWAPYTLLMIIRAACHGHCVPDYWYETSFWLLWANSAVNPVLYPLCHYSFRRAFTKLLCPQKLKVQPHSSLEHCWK
# Histamine H1 receptor (Cavia porcellus), sequence (P31389 whole entry): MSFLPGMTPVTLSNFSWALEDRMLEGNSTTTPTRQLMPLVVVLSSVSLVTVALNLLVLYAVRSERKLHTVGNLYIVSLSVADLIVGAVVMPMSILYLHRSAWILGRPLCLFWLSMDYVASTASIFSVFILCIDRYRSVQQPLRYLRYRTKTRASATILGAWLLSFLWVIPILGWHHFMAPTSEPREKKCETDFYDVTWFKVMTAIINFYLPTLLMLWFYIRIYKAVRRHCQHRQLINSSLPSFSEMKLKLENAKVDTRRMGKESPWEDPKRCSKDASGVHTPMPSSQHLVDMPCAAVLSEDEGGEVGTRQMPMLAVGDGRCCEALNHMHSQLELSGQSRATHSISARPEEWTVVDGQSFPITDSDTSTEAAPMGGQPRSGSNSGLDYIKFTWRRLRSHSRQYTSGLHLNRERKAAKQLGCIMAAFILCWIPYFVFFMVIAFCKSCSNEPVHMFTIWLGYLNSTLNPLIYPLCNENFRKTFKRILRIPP
# Histamine H3 receptor (Rattus norvegicus), sequence (Q9QYN8 whole entry): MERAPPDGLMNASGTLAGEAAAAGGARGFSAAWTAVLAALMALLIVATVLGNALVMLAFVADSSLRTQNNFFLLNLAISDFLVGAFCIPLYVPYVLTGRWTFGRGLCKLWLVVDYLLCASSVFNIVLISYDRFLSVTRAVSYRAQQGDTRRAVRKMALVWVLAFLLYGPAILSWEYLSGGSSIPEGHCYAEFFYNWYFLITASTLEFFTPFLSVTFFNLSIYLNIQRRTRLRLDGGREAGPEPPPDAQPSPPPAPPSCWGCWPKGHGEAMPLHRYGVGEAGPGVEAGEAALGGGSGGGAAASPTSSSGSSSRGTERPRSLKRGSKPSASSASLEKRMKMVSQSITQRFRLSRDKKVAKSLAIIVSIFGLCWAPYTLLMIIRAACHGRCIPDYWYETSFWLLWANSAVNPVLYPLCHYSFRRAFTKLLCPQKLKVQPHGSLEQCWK
# Histamine H3 receptor, sequence (Q9QYN8 whole entry): as above
SMILES,Ki (Histamine H3 receptor) [nM],pD2 [1],pD2 [2],pD2 [3],pD2 [4]
N[C@@H]1C[C@H]1c1cnc[nH]1 [VUF-5296],25.1,–,–,–,–
NCCc1c[nH]cn1,–,7.4,7.4,6.6,6.1
N[C@@H]1C[C@H]1c1c[nH]cn1,–,5.75,6.15,4.5,4.9
N[C@H]1C[C@@H]1c1c[nH]cn1 [VUF-5297],1.74,7.08,6.64,5,4.8
